Measured values reported in patent US7049461B1, “Treatment of leukemia” (University of Central Florida, priority 2001, dated 2006).

What was measured:
[1] = test system: human leukemia cancer cells (ATCC JURK); assay: Cytotoxicity assay: growth inhibition of Jurkat cells (MTS/PMS); assay type: cell-based; details: approximately 48 hours, test concentration not given
Procedure: The activity against leukemia cancer cells of the compounds (as earlier reported) was realized by the following procedure which determines the inhibitory effect of test samples on the growth of human leukemia cancer cells (ATCC JURK). The Jurkat cells are grown in RPMI 1640 media+10% Fetal bovine serum+1% Antibiotic/Antimycotic+1% of HEPES Buffer (1M)+1% Sodium Purivate (100 mM)+2.5% D-(+) Glucose Solution for approximately 48 hours at 37° C./5% CO2 […] compound.
Growth/Non-Growth of the cells (e.g., cell density) is determined using Promega's MTS/PMS assay system. MTS (3-(4,5-dimethylthiazol-2-yl)-5-(3-carboxymethoxyphenyl)-2-(4-sulfophenyl)-2H-tetrazolium, inner salt) is an aqueous compound that is reduced to soluble formazan by the presence of NADH formed by dehydrogenases present within the Jurkat cells. The absorbance of the formazan can be measured at 490 nm and is directly proportional to the number of living cells present in the culture. PMS (Phenazine Methosulfate) is added an electron coupling reagent and greatly increases the rate of reduction. […]
In order to establish the accuracy of this assay a Positive Control consisting of 50 μM Methotrexate should […] the net absorbance to less than 90% of the Negative Control (Jurkat cells are somewhat resistant to methotrexate) is utilized.

Stability in solutions = assay type: physicochemical; details: solution heated or stored for a long time; forms OF-12
[2] = Solubility in organic solvents; assay type: physicochemical
mice = details: cited from earlier work

Row | Compound | percent activity against human leukemia [1] [%] | Stability in solutions (Stability in solutions) | Solubility ([2]; in DMSO, DMFA, dichloroethane, acetonitrile) | Solubility ([2]; in hexane) | toxicity in mice LD50 (mice) [mg/kg]
1 | CCOc1ccc(C(Cl)=CC(=NN=C2c3ccccc3-c3ccccc32)C(=O)OC)cc1 [3F-19, 4-Chloro-4-(4-ethoxy-phenyl)-2-(fluoren-9-ylidene-hydrazono)-but-3-enoic acid methyl ester] | 100 | – | – | – | –
2 | CCOc1ccc(C(=O)CC(O)(NN=C2c3ccccc3-c3ccccc32)C(=O)OC)cc1 (stereo not shown) [OF-13, 4-(4-Ethoxy-phenyl)-2-(N′-fluoren-9-ylidene-hydrazino)-2-hydroxy-4-oxo-butyric acid methyl ester] | 97 | not stable in solutions and decomposes quickly | highly soluble | insoluble | –
3 | Nc1ccn([C@@H]2O[C@H](CO)[C@@H](O)[C@@H]2O)c(=O)n1 [cytarabine] | – | – | – | – | 826
4 | COc1cccc2c1C(=O)c1c(O)c3c(c(O)c1C2=O)C[C@@](O)(C(C)=O)C[C@@H]3O[C@H]1C[C@H](N)[C@H](O)[C@H](C)O1 [daunorubicin] | – | – | – | – | 26
